The values below come from patent publication US20160024083A1, “COMPOUNDS AND METHODS FOR TREATING CANCERS” (HEALTH RESEARCH, INC., priority 2013, published 2016).

Common to all, as to assay type: cell-based
One assay deals with MDA-MB-231. Briefly: Inhibition of growth / toxicity in non-target MDA-MB-231 cells. The method, then: (§1) This example provides a table (below) of the compounds of the present disclosure and their activity towards four different cell lines (i.e., CWR22R, HeLa, PC3, and MDA-MB-231). The IC50 for inhibition of growth is divided into 4 categories: A<1 μM, B 1-5 μM, C 5-20 μM, D>20 μM.
(§2) All compounds were tested for toxicity using 4 cells lines, target cells—CWR22R and non-target cells, Hela, PC3 and MDA-MB-231 (FIGS. 1A-F).

Another assay deals with PC3. Briefly: Inhibition of growth / toxicity in non-target PC3 cells. The settings on record: Homo sapiens, PC-3. The procedure:
as §1, §2

The next assay relates to CWR22R. Briefly: cells. The method, then:
FIG. 21. Toxicity of PLA1055 to CWR22R cells in vitro depending on time of incubation. PLA1055 was added to CWR22R in full range of concentrations for the periods of time shown on the right. After that drug containing media were changed for drug free and survival of cells was detected at 72 hours after start of treatment using Alamar Blue assay (Promega).
as §1, §2
LC50 data of in vitro 72 hours cytotoxicity assay are included in this table for comparison.
An in vitro experiment was run to detect the concentration of PLA1055 needed to kill all tumor cells in vitro (LC90) during different periods of time (30 minutes-72 hours, FIG. 21)).

A further assay relates to Hela. Briefly: Inhibition of growth / toxicity in non-target Hela cells. The procedure: as §1, §2
[1] abbreviates: Homo sapiens, 22Rv1, CWR22R, read-out: IC50 for inhibition of growth.
The mark [2] stands for this setting: CWR22R, read-out: IC50 for inhibition of growth.

Where two headings read alike, the source gives them in different places.

As a reminder, the IC50 is the midpoint of a concentration-inhibition curve. Turning to `CCCn1c2ccccc2c2cc(Br)ccc21` [Compound 1-1, 3-Bromo-9-propyl-9H-carbazole], the IC50 in the assay with MDA-MB-231 (Homo sapiens) was over 20 µM; with PC3, over 20 µM; in the assay on CWR22R (Homo sapiens, 22Rv1, read-out: IC50 for inhibition of growth, CWR22R) it was 1 to 5 µM; with Hela (Homo sapiens, HeLa) it was over 20 µM.

Take `CC(=O)c1ccc2c(c1)c1ccccc1n2CCCF` [Compound 1-2]: the IC50 in the assay with MDA-MB-231 (Homo sapiens) was over 20 µM; with PC3 it was over 20 µM; in the assay on CWR22R (setting [1]), under 1 µM; with Hela (Homo sapiens, HeLa) it was over 20 µM.

On to `CCCn1c2ccccc2c2cc(-c3cccs3)ccc21` [Compound 2-1, 9-Propyl-3-thiophen-2-yl-9H-carbazole], for which the 50% inhibitory concentration (IC50) with MDA-MB-231 (Homo sapiens) was over 20 µM; in the assay on PC3, over 20 µM; in the assay with CWR22R (setting [1]), under 1 µM; in the assay with Hela (Homo sapiens, HeLa), over 20 µM.

Consider `CCCn1c2ccccc2c2cc(-c3ccc(C)s3)ccc21` [Compound 2-2], for which the IC50 in the assay on MDA-MB-231 (Homo sapiens) was over 20 µM; with PC3, over 20 µM; with CWR22R (setting [1]), over 20 µM; in the assay on Hela (Homo sapiens, HeLa), over 20 µM.

As for `CCCn1c2ccccc2c2cc(-c3cnoc3)ccc21` [Compound 2-5], the concentration for half-maximal inhibition (IC50) in the assay on MDA-MB-231 (Homo sapiens) was over 20 µM; in the assay with PC3 it was over 20 µM; with CWR22R (setting [1]), under 1 µM; in the assay on Hela (Homo sapiens, HeLa), over 20 µM.

For the compound `CCn1c2ccccc2c2cc(-c3cccs3)ccc21` [Compound 2-6], the IC50 in the assay on MDA-MB-231 (Homo sapiens) was over 20 µM; with CWR22R (setting [1]) it was 1 to 5 µM; with Hela (Homo sapiens, HeLa), over 20 µM.

Take `CCCn1c2ccccc2c2cc(-c3ncco3)ccc21` [Compound 4-1, 3-Oxazol-2-yl-9-propyl-9H-carbazole]: the IC50 was over 20 µM in the assay with MDA-MB-231 (Homo sapiens); over 20 µM with PC3; 1 to 5 µM in the assay with CWR22R (setting [1]); over 20 µM in the assay on Hela (Homo sapiens, HeLa).

As for `CCCn1c2ccccc2c2cc(-c3nccs3)ccc21` [Compound 4-2], the IC50 in the assay on MDA-MB-231 (Homo sapiens) was over 20 µM; in the assay with PC3 it was over 20 µM; with CWR22R (setting [1]), over 20 µM; with Hela (Homo sapiens, HeLa) it was over 20 µM.

On to `CCn1c2ccccc2c2cc(-c3ccccn3)ccc21` [Compound 4-4], for which the half-inhibitory concentration (IC50) was over 20 µM in the assay on MDA-MB-231 (Homo sapiens); over 20 µM in the assay with PC3; 5 to 20 µM with CWR22R (setting [1]); over 20 µM in the assay on Hela (Homo sapiens, HeLa).

On to `CCCn1c2ccccc2c2cc(-c3ccccn3)ccc21` [Compound 4-5], for which the concentration for half-maximal inhibition (IC50) was over 20 µM with MDA-MB-231 (Homo sapiens); over 20 µM in the assay with PC3; 1 to 5 µM in the assay with CWR22R (setting [1]); over 20 µM with Hela (Homo sapiens, HeLa).

On to `CCCn1c2ccc(C(C)=O)cc2c2c(F)cccc21` [Compound 5-1, 1-(5-Fluoro-9-propyl-9H-carbazol-3-yl)-ethanone], for which the IC50 with MDA-MB-231 (Homo sapiens) is over 20 µM; in the assay on PC3, over 20 µM; with CWR22R (setting [1]), under 1 µM; with Hela (Homo sapiens, HeLa), over 20 µM.

Regarding `CCCn1c2ccc(C(C)=O)cc2c2ccc(F)cc21` [Compound 5-2], the IC50 with MDA-MB-231 (Homo sapiens) is over 20 µM; in the assay on PC3, over 20 µM; in the assay with CWR22R (setting [1]), 5 to 20 µM; in the assay with Hela (Homo sapiens, HeLa), over 20 µM.

In the case of `CC(=O)c1ccc2c(c1)c1c(C(N)=O)cccc1n2CCCF` [Compound 5-8], the IC50 is over 20 µM in the assay with MDA-MB-231 (Homo sapiens); over 20 µM in the assay with PC3; under 1 µM in the assay with CWR22R (setting [1]); over 20 µM in the assay with Hela (Homo sapiens, HeLa).

For `CCCn1c2ccccc2c2cc(C(C)=O)cnc21` [Compound 5-10], the IC50 is over 20 µM in the assay with MDA-MB-231 (Homo sapiens); over 20 µM with PC3; under 1 µM with CWR22R (setting [1]); over 20 µM with Hela (Homo sapiens, HeLa).

Regarding `CCOC(=O)c1cnc2c(c1)c1ccccc1n2CCCF` [Compound 5-11, 9-(3-fluoropropyl)-9H-pyrido[2,3-b]indole-3-carboxylic acid ethyl ester], the IC50 with MDA-MB-231 (Homo sapiens) was over 20 µM; in the assay on PC3, over 20 µM; with CWR22R (setting [1]), 1 to 5 µM; in the assay on Hela (Homo sapiens, HeLa), over 20 µM.

Take `CCCn1c2ccc(C(C)=O)cc2c2ncccc21` [Compound 5-13]: the IC50 in the assay on MDA-MB-231 (Homo sapiens) is over 20 µM; with PC3, over 20 µM; with CWR22R (setting [1]) it was 1 to 5 µM; in the assay on Hela (Homo sapiens, HeLa), over 20 µM.

For `CCCn1c2ccc(C(C)=O)cc2c2c(OC)cccc21` [Compound 6-1, 1-(5-Methoxy-9-propyl-9H-carbazol-3-yl)-ethanone], the IC50 in the assay on MDA-MB-231 (Homo sapiens) is over 20 µM; with PC3, over 20 µM; with CWR22R (setting [1]), under 1 µM; with Hela (Homo sapiens, HeLa), over 20 µM.

Consider `CNC(=O)c1cccc2c1c1cc(C(C)=O)ccc1n2CCCF` [Compound 6-4], for which the IC50 is over 20 µM in the assay on MDA-MB-231 (Homo sapiens); over 20 µM with PC3; 5 to 20 µM with CWR22R (setting [1]); over 20 µM in the assay on Hela (Homo sapiens, HeLa).

Consider `NC(=O)c1cnc2c(c1)c1ccccc1n2CCCF` [Compound 7-1, 9-(3-Fluoropropyl)-9H-pyrido[2,3-b]indole-3-carboxamide], for which the IC50 with MDA-MB-231 (Homo sapiens) was over 20 µM; in the assay with PC3 it was over 20 µM; in the assay on CWR22R (setting [1]), 1 to 5 µM; in the assay with Hela (Homo sapiens, HeLa) it was over 20 µM.

Turning to `CCCn1c2ccccc2c2cc(-c3nnco3)ccc21` [Compound 8-1, 3-[1,3,4]Oxadiazol-2-yl-9-propyl-9H-carbazole], the IC50 in the assay with MDA-MB-231 (Homo sapiens) was over 20 µM; with PC3 it was over 20 µM; with CWR22R (setting [1]), under 1 µM; with Hela (Homo sapiens, HeLa), over 20 µM.

Take `CCCn1c2ccccc2c2cc(-c3nncs3)ccc21` [Compound 8-3]: the IC50 with MDA-MB-231 (Homo sapiens) is over 20 µM; in the assay on PC3 it was over 20 µM; in the assay with CWR22R (setting [1]) it was over 20 µM; with Hela (Homo sapiens, HeLa) it was over 20 µM.

For the compound `FCCCn1c2ccccc2c2cc(-c3nnco3)cnc21` [Compound 8-4], the IC50 in the assay with MDA-MB-231 (Homo sapiens) was over 20 µM; in the assay with PC3, over 20 µM; in the assay with CWR22R (setting [1]), under 1 µM; with Hela (Homo sapiens, HeLa), over 20 µM.

For `FCCCn1c2ccccc2c2cc(-c3nnco3)ccc21` [Compound 9-1, 9-(3-Fluoropropyl)-3-[1,3,4]oxadiazol-2-yl-carbazole], the IC50 with MDA-MB-231 (Homo sapiens) is over 20 µM; with PC3, over 20 µM; in the assay on CWR22R (setting [1]), under 1 µM; in the assay with Hela (Homo sapiens, HeLa) it was over 20 µM.

For the compound `FCCCn1c2ccc(-c3nnco3)cc2c2ncccc21` [Compound 10-1, 5-(3-Fluoropropyl)-8-[1,3,4]oxadiazol-2-yl-5H-pyrido[3,2-b]indole], the IC50 in the assay with MDA-MB-231 (Homo sapiens) is over 20 µM; with CWR22R (setting [2]), over 20 µM; in the assay on Hela (Homo sapiens, HeLa), over 20 µM.

With `FCCCn1c2ccc(-c3nnco3)cc2c2ncccc21` [Compound 10-2], the IC50 with MDA-MB-231 is over 20 µM; with CWR22R (setting [2]), 5 to 20 µM; with Hela (Hela), over 20 µM.

On to `FCCCn1c2ccccc2c2cc(-c3cnco3)ccc21` [Compound 11-1, 9-(3-Fluoropropyl)-3-oxazol-5-yl-9H-carbazole], for which the IC50 with MDA-MB-231 (Homo sapiens) is over 20 µM; in the assay with PC3 it was over 20 µM; with CWR22R (setting [1]), under 1 µM; in the assay on Hela (Homo sapiens, HeLa) it was over 20 µM.

With `CCCn1c2ccccc2c2cc(-c3cnco3)ccc21` [Compound 11-2], the IC50 in the assay on MDA-MB-231 (Homo sapiens) is over 20 µM; with PC3, over 20 µM; in the assay on CWR22R (setting [1]) it was under 1 µM; in the assay on Hela (Homo sapiens, HeLa) it was over 20 µM.

On to `CCCn1c2ccccc2c2cc(-c3cocn3)ccc21` [Compound 12-1, 3-Oxazol-4-yl-9-propyl-9H-carbazole], for which the IC50 is over 20 µM with MDA-MB-231 (Homo sapiens); over 20 µM in the assay on PC3; over 20 µM in the assay with CWR22R (setting [1]); over 20 µM with Hela (Homo sapiens, HeLa).

In the case of `CCCn1c2ccccc2c2cc(-c3ccno3)ccc21` [Compound 13-1, 3-Isoxazol-5-yl-9-propyl-9H-carbazole], the IC50 was over 20 µM in the assay on MDA-MB-231 (Homo sapiens); over 20 µM with PC3; 1 to 5 µM in the assay on CWR22R (setting [1]); over 20 µM in the assay with Hela (Homo sapiens, HeLa).

Turning to `FCCCn1c2ccccc2c2cc(-c3ccno3)ccc21` [Compound 13-2], the 50% inhibitory concentration (IC50) with MDA-MB-231 (Homo sapiens) is over 20 µM; in the assay on PC3, over 20 µM; in the assay with CWR22R (setting [1]), under 1 µM; with Hela (Homo sapiens, HeLa), over 20 µM.

Take `FCCCn1c2ccccc2c2cc(-n3cncn3)ccc21` [Compound 14-1, 9-(3-Fluoropropyl)-3-[1,2,4]triazol-1-yl-9H-carbazole]: the IC50 in the assay with MDA-MB-231 (Homo sapiens) was over 20 µM; in the assay on PC3, over 20 µM; in the assay with CWR22R (setting [1]), under 1 µM; with Hela (Homo sapiens, HeLa) it was over 20 µM.

For `CCCn1c2ccccc2c2cc(C3=NCCO3)ccc21` [Compound 15-2], the IC50 in the assay on MDA-MB-231 (Homo sapiens) was over 20 µM; with PC3 it was over 20 µM; in the assay with CWR22R (setting [1]) it was over 20 µM; in the assay with Hela (Homo sapiens, HeLa), over 20 µM.

Take `CC(=O)c1cc2c3ccccc3n(CCCF)c2cn1` [Compound 17-1, 1-[9-(3-Fluoropropyl)-9H-beta-carbolin-3-yl]-ethanone]: the IC50 with MDA-MB-231 (Homo sapiens) was over 20 µM; with PC3, over 20 µM; with CWR22R (setting [1]) it was under 1 µM; in the assay on Hela (Homo sapiens, HeLa), over 20 µM.

Turning to `CCCn1c2ccccc2c2cc(C(C)=O)ncc21` [Compound 17-3], the IC50 was over 20 µM in the assay on MDA-MB-231 (Homo sapiens); over 20 µM in the assay with PC3; 5 to 20 µM with CWR22R (setting [1]); over 20 µM with Hela (Homo sapiens, HeLa).

Take `CC(=O)c1ccc2c(c1)c1ccccc1n2CCC(F)F` [Compound 18-2, 1-[9-(3,3-Difluoropropyl)-9H-carbazol-3-yl]-ethanone]: the IC50 with MDA-MB-231 (Homo sapiens) was over 20 µM; in the assay on PC3, over 20 µM; in the assay on CWR22R (setting [1]), under 1 µM; with Hela (Homo sapiens, HeLa), over 20 µM.

For the compound `CCCn1c2ccc(C(C)=O)cc2c2c(C(N)=O)cccc21` [Compound 19-1, 6-Acetyl-9-propyl-9H-carbazole-4-carboxamide], the IC50 is over 20 µM with MDA-MB-231 (Homo sapiens); over 20 µM in the assay with PC3; 1 to 5 µM in the assay on CWR22R (setting [1]); over 20 µM with Hela (Homo sapiens, HeLa).
